Here are results for three molecules from patent publication US9357924B2, “Composition, method, system and kit for optical electrophysiology” (The Research Foundation of State University of New York, priority 2006, dated 2016).

“And” between values parts separate entries of the source, which are not always exact repeats. Identical values can stand only once.

The subject of data set [1] is mouse heart cardiac tissue. As to the kind of experiment: Optical action potential recording in Langendorff-perfused mouse heart (Tyrode's solution). The conditions noted are these: mean ± SD. The protocol:
(§1) The dye testing experiments were performed on typical model animals: mice (n=6), rat (n=11), guinea pig (n=6), pig (n=13). All experimental protocols conformed to the Guide for the Care and Use of Laboratory Animals and were approved by the Committee for the Humane Use of Animal of the SUNY Upstate Medical University. Mice (C57BL/6, 20-25 g) were injected with ketamine (200 mg/kg IP), rats (Sprague Dawley, 300-400 g female) and guinea pigs were injected with heparin (550 U/100 g), and euthanized by sodium phentobarbital (1 ml/100 g for rats and 0.75 ml/100 g for guinea pigs). The heart was then immediately excised and placed in ice-cold cardioplegia solution (CPS) composed of (in mmol/l) 280 Glucose, 13.44 KCl, 12.6 NaHCO3, 34 Mannitol. […] Perfusion and superfusion temperatures were continuously monitored and kept at 36±1° C. by using two sets of glass heating coils and heated-refrigerated circulators. […]
(§2) After a 20-30 min stabilization period during which the perfusion flow and ECG was monitored, the excitation-contraction uncoupler diacetyl-monoxime (DAM) was added to the perfusate (15 mmol/l) to stop contractions of cardiac tissue. […]

The test system of data set [2] is rat heart cardiac tissue. Briefly: Optical action potential recording in Langendorff-perfused rat heart (Tyrode's solution). The conditions noted are these: mean ± SD. The protocol: as §1, §2
Data set [3] has as its system guinea pig heart cardiac tissue. As to the kind of experiment: Optical action potential recording in Langendorff-perfused guinea pig heart (Tyrode's solution). The settings on record: mean ± SD. The protocol:
as §1, §2

Data set [4] deals with pig cardiac tissue (right free ventricular wall). Briefly: Optical action potential recording in Tyrode-perfused pig right ventricular wall preparation. The conditions noted are these: for ΔF/F (relative fluorescence, maximal fluorescence efficacy): pig tissue, Tyrode-perfused, epifluorescence; for ΔF/F (relative fluorescence): pig, transillumination mode, thick cardiac tissue ~10 mm. The protocol: The dye testing experiments were performed on typical model animals: mice (n=6), rat (n=11), guinea pig (n=6), pig (n=13). All experimental protocols conformed to the Guide for the Care and Use of Laboratory Animals and were approved by the Committee for the Humane Use of Animal of the SUNY Upstate Medical University. Mice (C57BL/6, 20-25 g) were injected with ketamine (200 mg/kg IP), rats (Sprague Dawley, 300-400 g female) and guinea pigs were injected with heparin (550 U/100 g), and euthanized by sodium phentobarbital (1 ml/100 g for rats and 0.75 ml/100 g for guinea pigs). The heart was then immediately excised and placed in ice-cold cardioplegia solution (CPS) composed of (in mmol/l) 280 Glucose, 13.44 KCl, 12.6 NaHCO3, 34 Mannitol. After removal of extraneous tissues, the aorta was cannulated and Langendorff perfusion was started with a standard oxygenated Tyrode's solution (composed of (in mmol/l) 130 NaCl, 24 NaHCO3, 1.2 NaH2PO4, 1.0 MgCl2, 5.6 Glucose, 4.0 KCl, 1.8 CaCl2; buffered to a pH of 7.4) at 80 mm Hg and 36° C. Young pigs (15-20 kg,) were heparinized (500 IU, IV) and subsequently anesthetized with sodium phentobarbital (35 mg/kg IV). The heart was rapidly removed and Langendorff-perfused with cold (4° C.) CPS. The right free ventricular wall was quickly excised, and the right coronary artery was cannulated. Non-perfused tissue was removed, leaving a preparation of typically 5×5 cm and a thickness of 8 mm. The preparation was stretched on a plastic frame and perfused with a standard oxygenated Tyrode's solution at 80 mm Hg and 36° C. Whole cannulated heart (mouse, rat or guinea pig) or stretched pig tissue was put into special transparent chamber and superfused with the same solution at a rate of 30-40 ml/min. Perfusion and superfusion temperatures were continuously monitored and kept at 36±1° C. by using two sets of glass heating coils and heated-refrigerated circulators. Electrodes were sutured to whole hearts or inserted into pig tissue to monitor ECG. All preparations were continuously paced at the frequency 6.7 Hz, 5 Hz, 3.3 Hz and 2 Hz for mouse, rat, guinea pig, and pig, respectively.
After a 20-30 min stabilization period during which the perfusion flow and ECG was monitored, the excitation-contraction uncoupler diacetyl-monoxime (DAM) was added to the perfusate (15 mmol/l) to stop contractions of cardiac tissue. After a 20 minute equilibration, the preparation was stained by injecting voltage-sensitive dye solution into the perfusion flow (a bolus injection near cannula).
Solid dyes were dissolved in DMSO to make 10-50 mM stock solution that was kept frozen. […]

The test system of data set [5] is blood-perfused pig heart. Briefly: Optical mapping of blood-perfused Langendorff pig heart. The settings on record: for ΔF/F (relative fluorescence): blood perfusion. The protocol: Blood-perfused Langendorff preparation of pig heart was implemented. Briefly, approximately 1.5 liters of modified Tyrode's solution (37° C., composition in mmol/L: Na^+, 157; K^+, 4.7; Ca^2+, 1.5; Mg^2+, 0.7, H2PO4^−0.5, Cl^−137.6, HCO3^−28.0, glucose 11.0, dextran 4% and insulin 10 U) was infused in an external jugular vein, and blood-Tyrode's mixture was collected at equal rate from a carotid artery. The heart was perfused with blood-Tyrode mixture in a Langendorff apparatus. The blood-Tyrode mixture will be oxygenated (CO2 5%/02 95%), heated (37° C.) and filtered using a Liliput hollow fiber oxygenator (COBE Cardiovascular, Arvada, Co). Collector tubes were inserted into the right and left ventricles to collect all the blood coming out of the coronary sinus and Thebesian veins. Thereafter, the heart was “sealed” to ensure that all the outflow of perfused blood is collected for recirculation. The heart was placed in a warm bath with heated water-jacketed transparent glass wall and was superfused with an oxygenated, heated Tyrode solution. After a 20-30 min stabilization verified by a vigorous contraction and normal sinus rhythm, the excitation-contraction uncoupler diacetyl-monoxime (DAM) was added to the perfusate (15 mmol/l) to stop contractions. ECG was monitored throughout the experiment to ensure stable capture of the ventricles by the pacing electrode. […]
Blood-perfused pig heart imaging was done in a similar way. Briefly, the dye was excited with a 400-watt tungsten-halogen lamp (excitation filter, 650+/−20 nm) and the fluorescence was collected above 715 nm using a Computar objective lens (HG1208FCS_HSP, F0.8, focal length 12 mm,) and externally cooled CCD camera (Dalsa CA-D1-0128T, Ontario, Canada) at the frame rate of 400-800 fps and 12-bit resolution.
The acquired images were offline processed to improve their quality. The background autofluorescence (endogenous fluorescence recorded under the same conditions before dye injection) was subtracted from each frame to obtain the voltage-dependent optical signal. To allow temporal alignment and subsequent averaging of successive paced action potentials, the trigger for the pacing stimulus was recorded as a single pixel in the movie frames. […] Dye loading and washout dynamics were assessed from averaged sets of OP recordings (3-5 specimens). To facilitate comparison, fluorescence and OP signals were normalized to their peak values (defined as the difference between maximum and minimum values) in some figures.
For the dye loading dynamics, the time to reach peak values of background fluorescence (membrane voltage independent component of the dye molecules fluorescence), OP, and ΔF/F were determined by simple visual inspection of the dynamic plots. […]

For data set [6], the system named is mouse heart cardiac tissue. Briefly: Dye washout dynamics of OP amplitude in mouse heart. The conditions noted are these: mean ± SD. The protocol:
as §1
(§3) The acquired images were offline processed to improve their quality. The background autofluorescence (endogenous fluorescence recorded under the same conditions before dye injection) was subtracted from each frame to obtain the voltage-dependent optical signal. To allow temporal alignment and subsequent averaging of successive paced action potentials, the trigger for the pacing stimulus was recorded as a single pixel in the movie frames. […]

Data set [7] has as its system rat heart cardiac tissue. As to the kind of experiment: Dye washout dynamics of OP amplitude in rat heart. The conditions noted are these: mean ± SD. The protocol:
as §1, §3

Data set [8] relates to guinea pig heart cardiac tissue. Briefly: Dye washout dynamics of OP amplitude in guinea pig heart. The conditions noted are these: mean ± SD. The protocol:
as §1, §3

Data set [9] deals with pig cardiac tissue. As to the kind of experiment: Dye washout dynamics of OP amplitude in pig cardiac tissue. The conditions noted are these: mean ± SD. The protocol:
as §1, §3

A short description of data set [10]: Absorbance spectra in ethanol. In kind it is physicochemical. The protocol:
Absorbance spectra were measured in ethanol (panel A), and a model membrane made of multilamellar lipid vesicles (MLV) composed of egg phosphatidyl choline (panel B). The absorbance spectra reveal single maxima that represent a high level of the dye purity and absence of different configurational isomers. The absorption maxima for JPW6003 in ethanol occurred at 603 nm. For the dye JPW 6033 all absorption maxima are shifted 20-40 nm to shorter wavelengths, but absorbance is 2-3 times higher. Though the long wavelength absorbance peaks range from 561 nm to 603 nm in ethanol, and 526 nm to 539 nm in MLV, in practical applications both dyes can be efficiently excited over a much broader range (500-700 nm), allowing one to optimize excitation for the dye in different tissues, including blood perfused tissue.

Data set [11] can be described thus: Voltage-dependent fluorescence response in voltage-clamped hemispherical lipid bilayer (HLB) model membrane. The protocol:
Voltage-dependent spectra in model membranes were measured by a voltage-clamped hemispherical lipid bilayer (HLB) apparatus modified for near infrared fluorescence detection. In this experiment, light from a tungsten lamp is sent through a monochromator and then focused onto the bottom of the HLB, stained with dye from the external aqueous bathing solution. The monochromator is then scanned over the wavelength range of interest while a train of ±50 mV voltage steps are applied to the membrane at a frequency of 40 Hz and the modulation of the detected light signal is measured with a lockin amplifier. The transmitted light signal is collected at 180° from the incident light. Fluorescence is collected at 90° via fiber optic light guide through cutoff filters at 715 nm.

For data set [12], the system named is various cardiac tissues. As to the kind of experiment: Dye performance in various cardiac tissues compared with di-4-ANEPPS. The settings on record: in any of the tested species. The protocol: as §1, with “Mannitol. After removal of extraneous tissues, the aorta was cannulated and Langendorff perfusion was started with a standard oxygenated Tyrode's solution (composed of (in mmol/l) 130 NaCl, 24 NaHCO3, 1.2 NaH2PO4, 1.0 MgCl2, 5.6 Glucose, 4.0 KCl, 1.8 CaCl2; buffered to a pH of 7.4) at 80 mm Hg and 36° C. Young pigs (15-20 kg,) were heparinized (500 IU, IV) and subsequently anesthetized with sodium phentobarbital (35 mg/kg IV).” for “Mannitol.”

Turning to `CCCCN(CCCC)c1ccc2cc(/C=C/C=C/c3cc[n+](CCC[N+](C)(C)C)c4ccccc34)ccc2c1.[Br-].[Br-]` [JPW6003, Di-4-ANBDQPQ], the “ΔF/F (relative fluorescence, maximal fluorescence efficacy)” value in [1] is 9.1 ± 1.4%; in [2], 11.1 ± 1.6%; in [3] it was 11.3 ± 1.0%; in data set [4] it was 18.7% and 18.7 ± 1.1%. In addition, the “ΔF/F (relative fluorescence)” value in data set [4] is given as “approximately 20%”; in data set [5] (pig, Tyrode's-perfused loading) it was 12%; in [5] (pig, blood-perfused loading (dye injected into blood flow)), 5.5 ± 1.5%. For the same molecule, in [5] (dye injected during recirculated-blood-perfusion), the “time of slow increase in total fluorescence and OP (dye loading)” value is about 1 h. Also, the “steady-state level of deltaF/F during blood perfusion” value in data set [5] (pig, regardless of loading in Tyrode's or directly into blood flow) is recorded as about 5%. For the same molecule, the “50% washout time of OP amplitude” value was found to be 1.4 ± 0.2 h in data set [6], 2.50 ± 0.28 h in [7], 2.80 ± 0.31 h in data set [8] and 3.33 ± 0.31 h in data set [9]. Moreover, the “absorption maxima (excitation wavelength)” value in [10] was found to be 603 nm.
Take `CCCCN(CCCC)c1ccc2cc(/C=C/c3cc[n+](CCCS(=O)(=O)[O-])cc3)ccc2c1` [di-4-ANEPPS]: in [11], the “delta F/F (relative fluorescence) in a model membrane” value is on record as 9%.
Di-4-ANBDQBS [JPW6033]: the “ΔF/F (relative fluorescence, maximal fluorescence efficacy)” value in data set [1] turned out to be 10 ± 1.5%; in data set [2], 14 ± 1.5%; in data set [3] it was 12.5 ± 1.4%; in data set [4], 15 ± 1.0%. Also, in [4], the “ΔF/F (relative fluorescence)” value stood at 14 ± 1.1%. The “50% washout time of OP amplitude” value in data set [6] worked out at 1.0 ± 0.1 h; in data set [7], 1.8 ± 0.2 h; in data set [8], 2.0 ± 0.2 h; in [9], 2.50 ± 0.28 h. In data set [12], the “OP amplitude higher than that of di-4-ANEPPS” value is 50-100%.
